Patent US20030026852A1, “Molecular iodine pharmaceutical composition” (SYMBOLLON CORPORATION, priority 2001, published 2003)

Columns and labels:
[1] = test system: mammalian thyroid parameters; details: orally administered; cited from earlier work
[2] = administered orally; cited from earlier work
[3] = stability of a solution of molecular iodine in mineral oil at 40° C.; format: physicochemical
Procedure: The stability of a solution of molecular iodine in oil was measured. Crystals of elemental iodine were dissolved at room temperature in mineral oil. The concentrations of molecular iodine were approximately 0.6, 3.0 and 6.0 mg/mL. The absorbance was determined at 522 nm as a measure of the concentration of molecular iodine. Samples were stored in 500 mL amber glass bottles (Fisher Cat. No. 05-719-466) with Teflon lined screw-tops. The screw tops contained a septum to sample the fluids using a syringe without opening the bottle. The bottles were stored in an incubator at 40° C.
Samples were analyzed monthly to determine if there was a loss of molecular iodine. On the day of an analysis, a bottle was removed from the incubator, placed into room-temperature water covering approximately ¾ of the bottle, and allowed to cool for at least 6 hours. A sample was removed with a glass syringe and its absorbance was determined at 522 nm.

[4] = interaction of molecular iodine with mineral oil, UV-visible absorbance; format: physicochemical; details: elemental iodine dissolved in mineral oil, 300-600 nm
Procedure: The interaction of molecular iodine with mineral oil was evaluated. The following stock solutions were prepared for this experiment: 0.050 grams and 1.001 grams of elemental iodine crystals dissolved into about 80 ml of mineral oil in two different 100-ml flasks, and then filled to 100 ml with mineral oil. The absorbance spectrum between 300 and 600 nm for various mixtures of these two stock solutions were made in a UV/V is scanning spectrophotometer (Schimadzu 1125). The absorbance spectrums were analyzed and the extinction coefficient was calculated at appropriate wavelengths.
The UV-visible spectra of iodine-in-mineral oil presents two peaks in the range of 300-600 nm; one peak is at 302 nm and the other is at 522 nm (the maximum absorbance is at 522 nm). The absorbance is proportional to concentration as predicted by Beer's Law. […] The two peaks are at 302 nm and 522 nm and are slightly variable in the test concentration range. The extinction coefficients (moles per 1000 grams)^−1 (per cm)^−1) at 302 and 522 nm were calculated to be 219 and 905 respectively.

women = assay: six month study of molecular iodine in 111 women (IND #56,523); format: in vivo; details: 111 women, 0, 1.5, 3.0 or 6.0 mg per day for six months, in situ generation of molecular iodine
Procedure: To determine the potential for molecular iodine to cause hyperthyroidism or hypothyroidism 111 women daily were dosed with either 0, 1.5, 3.0 or 6.0 mg of molecular iodine per day for six months. This study was performed under the guidance of the FDA (IND #56,523). The dosage form used relied upon in situ generation of molecular iodine as described in U.S. Pat. No. 5,885,592 as opposed to the aqueous iodine therapy of Table 5. The total exposure to molecular iodine in this study was 3.619 subject years.

Compound | concentration negatively affecting mammalian thyroid parameters, fold less than for a comparable effect from molecular iodine [1] [fold] | oral toxicity compared with iodide [2] | Percentage of Initial Absorbance (OD522nm) ([3]; 0.6 mg/mL I2 in mineral oil, Day 14) [%] | Percentage of Initial Absorbance (OD522nm) ([3]; 0.6 mg/mL I2 in mineral oil, Day 32) [%] | Percentage of Initial Absorbance (OD522nm) ([3]; 0.6 mg/mL I2 in mineral oil, Day 56) [%] | Percentage of Initial Absorbance (OD522nm) ([3]; 0.6 mg/mL I2 in mineral oil, Day 97) [%] | Percentage of Initial Absorbance (OD522nm) ([3]; 0.6 mg/mL I2 in mineral oil, Day 143) [%] | Percentage of Initial Absorbance (OD522nm) ([3]; 3.0 mg/mL I2 in mineral oil, Day 14) [%] | Percentage of Initial Absorbance (OD522nm) ([3]; 3.0 mg/mL I2 in mineral oil, Day 32) [%] | Percentage of Initial Absorbance (OD522nm) ([3]; 3.0 mg/mL I2 in mineral oil, Day 56) [%] | Percentage of Initial Absorbance (OD522nm) ([3]; 3.0 mg/mL I2 in mineral oil, Day 97) [%] | Percentage of Initial Absorbance (OD522nm) ([3]; 3.0 mg/mL I2 in mineral oil, Day 143) [%] | Percentage of Initial Absorbance (OD522nm) ([3]; 6.0 mg/mL I2 in mineral oil, Day 14) [%] | Percentage of Initial Absorbance (OD522nm) ([3]; 6.0 mg/mL I2 in mineral oil, Day 32) [%] | Percentage of Initial Absorbance (OD522nm) ([3]; 6.0 mg/mL I2 in mineral oil, Day 56) [%] | Percentage of Initial Absorbance (OD522nm) ([3]; 6.0 mg/mL I2 in mineral oil, Day 97) [%] | Percentage of Initial Absorbance (OD522nm) ([3]; 6.0 mg/mL I2 in mineral oil, Day 143) [%] | change of absorbance with time (stability in mineral oil) [4] | hyperthyroidism or hypothyroidism (women) | treatment-emergent adverse events, laboratory parameters, vital signs versus dose (women)
I [iodide] | 10 | – | – | – | – | – | – | – | – | – | – | – | – | – | – | – | – | – | – | –
II [I2, molecular iodine] | – | less toxic than iodide | 99.5 | 99.1 | 98.2 | 97.8 | 96.4 | 100.6 | 100.5 | 100.4 | 100.1 | 100.8 | 100.3 | 100.2 | 99.2 | 101.4 | 100.7 | did not change with time | No hyperthyroidism or hypothyroidism was observed | not associated with increases in incidence, severity and causality of treatment-emergent adverse events or clinically significant changes in laboratory parameters or vital signs
